Assay results taken from BigSolDB 2.1.

O=C(O)CC(O)C(=O)O (stereo unspecified)
solubility (mole fraction)
Details	298.15 K	303.15 K	308.15 K	313.15 K	318.15 K	323.15 K	328.15 K	333.15 K
in ethanol	0.109	0.12	0.136	0.148	0.165	0.184	0.207	0.227
in water	0.15	0.161	0.178	0.196	0.213	0.229	0.249	0.271
